Source: patent US20250145715A1, “B7-H3 TARGETING FUSION PROTEINS AND METHODS OF USE THEREOF” (GT Biopharma, Inc., priority 2021, published 2025)

Tested on: NK cells (CD45+CD56+CD3−) in PBMCs, with or without OVCAR8
Assay: Mass cytometry (CyTOF) of TriKE activated NK cells
Type: cell-based, human
Procedure: FIG. 31 illustrates high dimensional analysis of cam1615B7-H3 activated NK cells. Concatenated analysis of three donors PBMCs incubated alone, with 30 nM cam1615B7-H3 TriKE, with OVCAR8 tumor (2:1 E:T), or with 30 nM cam1615B7-H3 TriKE and OVCAR8 tumor. Data was visualized in viSNE (Cytobank) and gated on CD45+CD56+CD3-cells.
For mass cytometry (CyTOF) studies, PBMCs were incubated alone or with OVCAR8s at a 2:1 ratio+/−cam1615B7-H3 (30 nM) for 24 h. After harvesting samples, cells were counted, and viability was measured using trypan blue exclusion. Two hundred thousand cells from each donor were aliquoted into 5-mL polystyrene U-bottom tubes for barcoding and CyTOF staining. Cells were stained with Cisplatin (Fluidigm Product #201064, San Francisco, CA, USA), followed by barcoding using the Cell-ID 20-Plex Pd Barcoding Kit (Fluidigm Product #201060). After barcoding, all cells were combined into a single 5-mL polystyrene U-bottom tube and incubated in the surface marker antibody cocktail for 30 min at 4° C.
Following surface staining, cells were then fixed using 2% PFA. For intracellular staining, cells were permeabilized by incubation with Triton X 0.1% for 5 min at room temperature, followed by incubation with intracellular antibody cocktail for 30 min at 4° C. Stained cells were then incubated overnight with Cell-ID Intercalator (Fluidigm Product #201192A). The following morning cells were washed and run on the CyTOF 2 instrument. Wash steps were completed using either Maxpar PBS (Fluidigm Product #201058), Maxpar Cell Staining Buffer (Fluidigm Product #201068), or Millipure Water at 1600 RPM for 4 min. For custom tagged antibodies: Conjugation of heavy metals to a specific ScFv is conducted using the Maxpar antibody labeling kit (Fluidigm). The protocol involves partial antibody reduction using 0.5 M TCEP: Pierce Bond-Breaker TCEP Solution (Thermo Scientific Product #77720, Waltham, MA, USA), as well as comprehensive buffer exchange using centrifugal filter units of both 3 kDa and 50 kDa size (Millipore Product #UFC500396, UFC505096, Burlington, MA, USA). After conjugation of the antibody, yield is measured, and the final reagent is stored in antibody stabilizer (Boca Scientific Product #131 000, Westwood, MA, USA). The reagent is then titrated and verified against known flow cytometry antibodies. Data from the three donors was concatenated. FCS file concatenation was completed with a combination of Cytobank and Flowjo. All Visne analyses were carried out in Cytobank.
As illustrated in FIG. 31 high dimensional analysis of cam1615B7-H3 TriKE activated cells was performed. To broadly evaluate the phenotypic and functional effects of TriKE activation on NK cells, a custom, 42 parameter, CyTOF (mass cytometry) NK cell targeted panel was used. PBMCs were left untreated, incubated with cam1615B7-H3 TriKE for 24 h, incubated with tumor (OVCAR8s) for 24 h, or incubated with tumor and cam1615B7-H3 TriKE for 24 h. Cells were then stained, fixed, and run on a CyTOF2. Samples (three biologic replicates per condition) were concatenated, and data was visualized with viSNE, which uses all expression information to display localization of individual cells in a 2D plot in order to explore the multidimensional data (FIG. 31). The data indicated no changes in distributions of CD56^brights versus CD56^dims. Activation markers CD25 and CD69 were both induced with TriKE treatment, as was the chemokine receptor CXCR3. Granzyme B, involved in cytolytic activity of NK cells, was primed on effectors+TriKE, but in the presence of tumor targets (effectors+tumor+TriKE) these Granzyme B high cells disappeared, likely as a cause of ADCC driven specific degranulation. […] This also seemed to be the case with NKG2D, but the natural cytotoxicity receptors (NCR: NKp30, NKp44, and NKp46) were less affected.

[1] = effectors exposed to tumor in the presence of TriKE

## cam1615B7-H3: second-generation TriKE: humanized camelid anti-CD16 VHH, human wild-type IL-15, anti-B7-H3 mAb 376.96 scFv; SEQ ID NO:1
30 nM, 24 h
  distributions of CD56brights versus CD56dims: no changes
30 nM, 24 h, TriKE treatment
  CD25 expression: induced
  CD69 expression: induced
  CXCR3 expression: induced
[1]
  TIGIT: did not seem as affected
  activating KIR (KIR2DS1 and KIR2DS4) expression: reduced in expression
  inhibitory KIR (KIR2DL1, KIR2DL3 and KIR3DL1) expression: reduced in expression
  natural cytotoxicity receptors (NKp30, NKp44, NKp46): less affected
effectors+TriKE
  Granzyme B: primed
effectors+tumor+TriKE
  Granzyme B high cells: disappeared
